Measured values reported in patent US8324412B2, “Method for preparing 4-[17β-methoxy-17α-methoxymethyl-3-oxoestra-4,9-dien-11β-yl]benzaldehyde (E)-oxime (asoprisnil)” (Bayer Pharma AG, priority 2006, dated 2012).

Experiment: Stability of the prior-art amorphous solid form in the solid pharmaceutical form under ICH accelerated conditions
Format: physicochemical
Conditions: amorphous solid form described in EP 129 26 07, ICH accelerated conditions (40° C., 75% r.h.)
From the text: According to the details disclosed in the literature, it is not possible to prepare the individual intermediates on the manufacturing scale in such a way that the medicinally active asoprisnil and its precursors can be obtained therefrom reliably and reproducibly and having the analytical parameters required by the authorities or by the legislation pursuant to ICH Q6A Guidance, 2000, such as byproduct profile, content of active ingredient, chemical and physical purity, and stability. […] The suitability of the asoprisnil obtainable by this method for a solid pharmaceutical form is accordingly low.

Physical stability in the solid pharmaceutical form (recrystallization): partial to complete recrystallization
SMILES: COC[C@]1(OC)CC[C@H]2[C@@H]3CCC4=CC(=O)CCC4=C3[C@@H](c3ccc(/C=N/O)cc3)C[C@@]21C [asoprisnil, 4-[17β-methoxy-17α-methoxymethyl-3-oxoestra-4,9-dien-11β-yl]benzaldehyde (E)-oxime]
